Data on 6 compounds can be found in patent US20240277730A1, “SUPPRESSION OF COVID-19 REPLICATION BY COVID-19 ENTRY INHIBITORS” (Board of Regents of the University of Nebraska, priority 2021, published 2024).

Data set [1] concerns the target ACE2: SARS-COV-2 Spike RBD (Homo sapiens, UniProt Q9BYF1). The data set is described as follows: ACE2: SARS-COV-2 Spike RBD inhibitor screening assay (ELISA kit). On the set-up: species or system SARS-COV-2 / human. The note with it: tested 0.25 to 5 μM in triplicate; read-out: IC50, inhibition of binding of SARS-COV-2 Spike RBD to ACE2.
Data set [2] can be described thus: MTT cell viability assay, HEK293T-hACE2. The note with it: human, HEK293T-hACE2 cells. The format is cell-based. As for the experimental part: (§1) The MTT cell viability assay of the preferred embodiment utilized HEK-293T-hACE2. UNCN1T. Vero-STAT1 knockout, and Calu-3 cells seeded at the density of 20,000 cells/well in a 96-well plate containing 100 μl complete media specific for each cell type. Cells were incubated for 12 h at 37° C., in a humidified 5% CO2 incubator for adherence. After 12-h incubation, the media was replaced with fresh media, and HEK-293T-hACE2 cells were treated with the five compounds at concentrations ranging between 0.001 to 100 μM. The Calu-3. […] Untreated cells were considered a negative control, and DMSO treated cells were considered vehicle controls. After the treatment, cells were incubated at 37° C., in humidified 5% CO2 incubator. Seventy-two hour posttreatment. 20 μl of MTT substrate (5 mg/ml) was added to each well and incubated for 4 additional hours at 37° C., in the dark. Then the culture media was carefully removed, and blue formazan crystals were dissolved in 200 μl of DMSO, and the purple color was read at 595 nm with a reference filter of 620 nm.

Another data set is described as follows: in vitro. The format is cell-based. The settings on record: African green monkey, Vero-STAT1 knockout cells, MTT. As for the experimental part:
as §1

A short description of data set [3]: MTT cell viability assay, UNCN1T. In kind it is cell-based. The note with it: human, UNCN1T cells. As for the experimental part: as §1
A short description of data set [4]: MTT cell viability assay, Calu-3. The format is cell-based. The note with it: human, Calu-3 cells. As for the experimental part: as §1
In data set [5] the test system is pseudotyped lentiviral particles expressing Spike glycoprotein of SARS-COV-2. Description: microbe, parasite or virus in culture. The format is cell-based.
The subject of data set [6] is SARS-COV-2. Description: antiviral activity against live SARS-COV-2 in UNCN1T cells (RT-qPCR). In kind it is cell-based. The note with it: read-out: IC50, inhibition of SARS-COV-2 replication.
For data set [7], the system named is SARS-COV-2. The data set is described as follows: microbe, parasite or virus in culture. In kind it is cell-based. The settings on record: read-out: IC50, inhibition of SARS-COV-2 replication.
The test system of data set [8] is SARS-COV-2. In kind it is cell-based.
Another data set concerns the target Hu-1 S-RBD (Severe acute respiratory syndrome coronavirus 2, UniProt P0DTC2). The data set is described as follows: microscale thermophoresis (MST), S-RBD alone. The format is binding, SARS-COV-2.
Data set [9] deals with SARS-COV-2. In kind it is cell-based. The source holds these as a separate data set.
Where [10] appears, read: Severe acute respiratory syndrome coronavirus 2.

Values joined by “and” are separate entries in the source; they are usually repeats but may differ in a detail not shown here. Equal values may be shown once. “Also recorded” adds a separate entry of the source.

ACE2: SARS-COV-2 Spike RBD, sequence (Q9BYF1 18-740): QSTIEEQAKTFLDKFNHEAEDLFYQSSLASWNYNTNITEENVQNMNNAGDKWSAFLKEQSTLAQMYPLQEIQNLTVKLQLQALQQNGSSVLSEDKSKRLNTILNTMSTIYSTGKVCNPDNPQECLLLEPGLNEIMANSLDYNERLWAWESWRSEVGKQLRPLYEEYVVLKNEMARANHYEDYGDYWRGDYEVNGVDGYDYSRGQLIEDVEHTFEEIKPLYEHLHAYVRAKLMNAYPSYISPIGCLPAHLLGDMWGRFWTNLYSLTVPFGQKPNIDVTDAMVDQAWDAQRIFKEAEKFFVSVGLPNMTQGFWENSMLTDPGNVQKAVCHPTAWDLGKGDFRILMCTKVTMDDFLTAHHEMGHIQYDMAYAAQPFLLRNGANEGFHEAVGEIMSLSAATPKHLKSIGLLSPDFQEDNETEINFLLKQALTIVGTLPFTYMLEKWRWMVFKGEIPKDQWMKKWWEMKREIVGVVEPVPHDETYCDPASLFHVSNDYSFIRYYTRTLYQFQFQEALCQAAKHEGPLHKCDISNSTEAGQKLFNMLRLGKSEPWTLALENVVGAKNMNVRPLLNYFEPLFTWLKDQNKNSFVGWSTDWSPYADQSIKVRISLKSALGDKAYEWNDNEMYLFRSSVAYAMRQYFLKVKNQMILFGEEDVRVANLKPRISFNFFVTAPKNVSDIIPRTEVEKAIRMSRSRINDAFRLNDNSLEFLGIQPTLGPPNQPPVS

For `CN1C(=O)c2ccccc2[S+]([O-])c2cc([N+](=O)[O-])ccc2S1(=O)=O` (stereo not shown) [formula (Ia), 6-methyl-2-nitrodibenzo[d,g]-[1,6,2]dithiazocin-7(6H)-one 5,5, 12-trioxide], the IC50 in data set [1] was < 0.25 µM and ≥ 0.25 µM; in the data set with SARS-COV-2 [6] (setting [10]) it was 0.67 µM; in the data set with SARS-COV-2 [6] it was 1.16 µM; with SARS-COV-2 [7] (setting [10]), 5.35 µM; with SARS-COV-2 [7] it was 2.94 µM. The CC50 at 72 h in [2] was more than 100 µM; in “in vitro”, 6.21 µM; in data set [3], more than 100 µM; in [4], more than 100 µM. In addition, the “pseudotype viral entry inhibition” value in data set [5] is “low level of viral entry inhibition”. The “SARS-COV-2 infection compared with vehicle controls” value in the data set with SARS-COV-2 [8] is on record as “no significant difference”. Also, the “reduction in SARS-COV-2 infectivity” value in the data set with SARS-COV-2 [8] was approximately 40%.
Regarding `O=C1Nc2cc(C(F)(F)F)ccc2Oc2ccsc21` [formula (IIa), 7-(trifluoromethyl)benzo[b]-thieno[2,3-f][1,4]oxazepin-10(9H)-one], the “binding to S-RBD alone” value at Hu-1 S-RBD was “does not binding; also recorded: does not bind”. Moreover, the CC50 at 72 h was more than 100 µM in [2], 7.13 µM in the data set “in vitro”, more than 100 µM in data set [3] and more than 100 µM in data set [4]. Further, the “pseudotype viral entry inhibition” value in [5] was “significant and robust viral entry inhibition”. Also, the IC50 in data set [5] (Severe acute respiratory syndrome coronavirus 2, 48 h, read-out: IC50, inhibition of entry of pseudotyped lentiviral particles) worked out at 0.84 µM. For the same compound, the “SARS-COV-2 infection compared with vehicle controls” value with SARS-COV-2 [8] is “no significant difference”. The “reduction in SARS-COV-2 infectivity” value with SARS-COV-2 [8] is approximately 40%.
Turning to `CCn1c(SCC(=O)N2CCCc3ccccc32)nnc1-c1cccs1` [formula (V), 1-(3,4-dihydroquinolin-1(2H)-yl)-2-((4-ethyl-5-(thiophen-2-yl)-4H-1,2,4-triazol-3-yl)lhio)elhanone], the IC50 in data set [1] came out at 1.91 µM. This compound registered a cytotoxic concentration (CC50) at 72 h in data set [2] of more than 100 µM.
Take `CCC(CC)COC(=O)[C@H](C)N[P@](=O)(OC[C@H]1O[C@@](C#N)(c2ccc3c(N)ncnn23)[C@H](O)[C@@H]1O)Oc1ccccc1` [RDV, remdesivir]: in the data set on SARS-COV-2 [9], the “reduction in dosages in RDV/formula (IIa) combination” value is listed as not below 2.3 fold.
For the compound `OC(CNCCNc1ncccc1C(F)(F)F)Cn1ccc2ccccc21` (stereo not shown) [formula (VI), 1-(1H-indol-1-yl)-3-((2-((3-(trifluoromethyl)pyridin-2-yl)amino)ethyl)amino)-propan-2-ol], the IC50 in data set [1] was more than 5 µM. Further, in data set [2], the CC50 at 72 h was more than 100 µM.
With `CN(C)/C=C1\N=C(c2cccnc2Oc2ccc(Cl)cc2)OC1=O` [formula (VII), (Z)-2-(2-(4-chlorophenoxy)-pyridin-3-yl)-4-((dimethyl-amino)methylene)oxazol-5(4H)-one], in data set [1], the 50% inhibitory concentration (IC50) is more than 5 µM. In data set [2], this compound had a 50% cytotoxic concentration (CC50) at 72 h of more than 100 µM.
